Test results from publication PMC9421654, “Discovery of Substituted Di(pyridin-2-yl)-1,2,4-thiadiazol-5-amines as Novel Macrofilaricidal Compounds for the Treatment of Human Filarial Infections” (Journal of Medicinal Chemistry, 2022).

Assays:
TK6 cells = assay: Micronucleus test; assay type: cell-based; conditions: presence and absence of rat liver S9
[1] = system: CEREP receptor, ion channel, transporter panel; assay: Eurofins CEREP non-kinase panel, binding; conditions: binding at 10 μM
Method: [36] Eurofins Cerep, Le Bois l’Evêque B.P. 30001, 86 600 Celle l’Evescault, France. Compound binding was calculated as a % inhibition of the binding of a radioactively labeled ligand specific for each target.

CYP1A2 = biological target: T1, CYP1A2 (Homo sapiens, UniProt P05177); assay: Cytochrome P450 inhibition, 1A2; assay type: in vitro ADME; conditions: read-out: Cytochrome P450s IC50, 1A2
T1 sequence (P05177 1-516): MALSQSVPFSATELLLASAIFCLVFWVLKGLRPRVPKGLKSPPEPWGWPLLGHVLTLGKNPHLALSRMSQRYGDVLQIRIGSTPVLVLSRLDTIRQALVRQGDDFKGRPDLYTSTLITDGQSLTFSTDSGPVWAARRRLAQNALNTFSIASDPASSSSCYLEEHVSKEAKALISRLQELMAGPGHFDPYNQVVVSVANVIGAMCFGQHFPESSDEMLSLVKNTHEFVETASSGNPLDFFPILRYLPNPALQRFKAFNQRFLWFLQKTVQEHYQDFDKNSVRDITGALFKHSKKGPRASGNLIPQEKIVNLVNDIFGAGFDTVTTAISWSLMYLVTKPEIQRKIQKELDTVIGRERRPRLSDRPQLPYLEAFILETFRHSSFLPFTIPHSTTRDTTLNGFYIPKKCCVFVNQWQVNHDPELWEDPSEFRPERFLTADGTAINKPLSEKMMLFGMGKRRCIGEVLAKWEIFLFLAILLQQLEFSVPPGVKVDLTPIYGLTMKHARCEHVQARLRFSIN

in vivo = conditions: dog
Text: IV formulation vehicle for rat: 15% DMA / 50%PEG / 35% D5W; for dog: 5% DMA /
PO formulation vehicle for mouse and rat: a suspension in 0.5% CMC / 0.25% Tween80, as a
suspension; for dog: a suspension in 0.5% methyl cellulose / 0.25% Tween80

[2] = Exploratory toxicological evaluation in vivo
Text: Showing no in vitro safety concerns (Table 7), it was progressed into in vivo safety evaluation studies. […] Since the mechanism of action of this series of compounds is not known, the best approach was to design analogs that would limit exposure within the brain.

Rat pharmacokinetics = conditions: in vivo
Text: Table S1. Compound 31cross species PK data.

in vitro = conditions: human, Caco-2

CC(=O)N(C)c1cccnc1Nc1nc(-c2ccc(OC(C)C)cn2)ns1 [Compound 47, N-(2-((3-(5-Isopropoxypyridin-2-yl)-1,2,4-thiadiazol-5-yl)amino)pyridin-3-yl)-N-methylacetamide]
micronucleus (TK6 cells): negative
CEREP receptor, ion channel, transporter panel: targets bound / tested ([1]; targets with >50%): 1/76
IC50 (CYP1A2): > 30 µM

CC(C)Oc1ccc(-c2nsc(Nc3ncccc3N(C)C)n2)nc1 [Compound 31, N^2-(3-(5-Isopropoxypyridin-2-yl)-1,2,4-thiadiazol-5-yl)-N3,N3-dimethylpyridine-2,3-diamine]
CEREP receptor, ion channel, transporter panel: targets bound / tested ([1]; targets with >70%): 5/76
Vd (in vivo; iv, 2 mg/kg): 3.08 ± 0.03 L/kg
clearance (in vivo; iv, 2 mg/kg): 18.8 ± 2.7 mL/min/kg
AUC(0-inf) (in vivo; po, 3 mg/kg): 4.02 ± 1.03 µM·h
Cmax (in vivo; po, 3 mg/kg): 1.41 ± 0.53 µM
Tmax (in vivo; po, 3 mg/kg): 1.2 ± 0.8 h
bioavailability (in vivo; po, 3 mg/kg): 55 ± 21%
IC50 (CYP1A2): > 30 µM
exploratory toxicological evaluation, observations [2]: CNS (central nervous system)-related observations were noted
clearance (Rat pharmacokinetics; iv, i.v. 2 mg/kg, mean ±SD): 8.22 ± 2.72 mL/min/kg
Vd (Rat pharmacokinetics; iv, i.v. 2 mg/kg, read-out: Vss): 2.07 ± 0.92 L/kg
AUC(0-inf) (Rat pharmacokinetics; po, p.o. 10 mg/kg): 38.1 ± 5.1 µM·h
Cmax (Rat pharmacokinetics; po, p.o. 10 mg/kg): 6.28 ± 0.9 µM
Tmax (Rat pharmacokinetics; po, p.o. 10 mg/kg): 2 h
bioavailability (Rat pharmacokinetics; po, p.o. 10 mg/kg): 63 ± 20%

Cc1cccnc1Nc1nc(-c2ccc(OC3CCN(C4CC4)CC3)cn2)ns1 [Compound 19, 3-[5-[(1-Cyclopropyl-4-piperidyl)oxy]-2-pyridyl]-N-(3-methyl-2-pyridyl)-1,2,4-thiadiazol-5-amine]
efflux ratio (in vitro): 0.9
